From BindingDB's records for doi:10.1016/j.ab.2009.08.013 (Novartis Institute For Tropical Diseases, 2009)
Non-standard residues stand in square brackets, D forms with d. Residues, ends and D or L forms follow the SMILES beside them. *: point of attachment. Nle = CCCC[C@H](N)C(=O)O; Bz = O=C(c1ccccc1)*

Experiments:
[1] = target: T1, Genome polyprotein [1393-1439,E1407V]/[1476-1660,R1508K,A1566M] (dengue virus type 1, UniProt P17763+P33478, A1566M/E1407V/R1508K); assay: Enzyme Inhibition Assay; details: pH 7.5; 37 °C
T1 construct: 1393-1439; 1476-1660
T1 sequence (P17763 1476-1660, looked up, stated change not applied): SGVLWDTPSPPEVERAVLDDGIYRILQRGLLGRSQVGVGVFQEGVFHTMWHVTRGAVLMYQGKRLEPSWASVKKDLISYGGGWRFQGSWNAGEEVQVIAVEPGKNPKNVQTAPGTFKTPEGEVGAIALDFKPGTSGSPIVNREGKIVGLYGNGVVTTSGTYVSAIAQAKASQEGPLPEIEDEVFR
T1 sequence (P33478 1393-1439, looked up, stated change not applied): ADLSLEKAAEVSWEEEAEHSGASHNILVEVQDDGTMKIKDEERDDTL
Experimental: (§1) Inhibitors were assayed in a 96-well plate format. […] The reaction was initiated by the addition of substrate Bz-nKRR-AMC. Reaction progress was monitored continuously by following the increase in fluorescence on a Tecan Safire2 plate reader. IC50 values of inhibitors were derived by fitting the calculated initial velocities to a nonlinear regression curve using GraphPad Prism software. Each point of the IC50 curve was measured in duplicate during a single experiment.

[2] = target: T2, Genome polyprotein [1394-1440]/[1476-1660,T1585M] (dengue virus type 3, UniProt P27915+Q6YMS4, T1585M); assay: Enzyme Inhibition Assay
T2 construct: 1394-1440; 1476-1660
T2 sequence (P27915 1394-1440, stated change not applied): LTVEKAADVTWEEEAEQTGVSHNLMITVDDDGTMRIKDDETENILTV
T2 sequence (Q6YMS4 1476-1660, looked up, stated change not applied): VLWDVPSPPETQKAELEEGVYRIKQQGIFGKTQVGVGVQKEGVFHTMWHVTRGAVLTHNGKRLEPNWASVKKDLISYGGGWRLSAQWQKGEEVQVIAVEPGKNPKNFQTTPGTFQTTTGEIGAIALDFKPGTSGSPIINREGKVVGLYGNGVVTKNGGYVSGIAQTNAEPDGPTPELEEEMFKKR
Experimental: as §1

[3] = target: T3, Genome polyprotein [1394-1440]/[1476-1660] (dengue virus type 4, UniProt Q58HT7); assay: Enzyme Inhibition Assay
T3 construct: 1394-1440; 1476-1660
T3 sequence (Q58HT7 1394-1440): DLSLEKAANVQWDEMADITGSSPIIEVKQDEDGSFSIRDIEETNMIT
T3 sequence (Q58HT7 1476-1660): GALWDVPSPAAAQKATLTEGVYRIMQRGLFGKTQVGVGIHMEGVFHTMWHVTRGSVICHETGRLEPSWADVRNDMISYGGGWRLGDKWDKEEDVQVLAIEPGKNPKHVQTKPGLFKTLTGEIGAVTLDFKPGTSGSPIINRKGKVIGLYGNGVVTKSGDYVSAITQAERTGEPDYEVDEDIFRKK
Experimental: as §1

[4] = target: T4, Genome polyprotein [1066-1250,R1182K]/[1394-1440,K1405R,D1408E] (dengue virus type 2, UniProt P14340+P27914, D1408E/K1405R/R1182K); assay: Enzyme Inhibition Assay (IC50) and Fluorescence Quench Assay (KD); details: pH 7.5; 37 °C
T4 construct: 1066-1250; 1394-1440
T4 sequence (P14340 1394-1440, looked up, stated change not applied): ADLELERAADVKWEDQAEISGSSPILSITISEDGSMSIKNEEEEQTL
T4 sequence (P27914 1066-1250, looked up, stated change not applied): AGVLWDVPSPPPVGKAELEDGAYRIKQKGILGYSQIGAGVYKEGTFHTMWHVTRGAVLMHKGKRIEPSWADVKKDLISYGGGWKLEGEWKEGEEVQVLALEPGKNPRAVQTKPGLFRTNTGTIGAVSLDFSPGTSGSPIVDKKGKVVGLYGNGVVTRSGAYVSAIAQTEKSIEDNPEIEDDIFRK
Experimental: (§2) Inhibitors were assayed in a 96-well plate format. […] The reaction was initiated by the addition of substrate Bz-nKRR-AMC. Reaction progress was monitored continuously by following the increase in fluorescence on a Tecan Safire2 plate reader. IC50 values of inhibitors were derived by fitting the calculated initial velocities to a nonlinear regression curve using GraphPad Prism software. Each point of the IC50 curve was measured in duplicate during a single experiment. Compounds were tested for binding (KD) using fluorescence quench assay. Two protein solutions were prepared (2-5 uM protein with and without 40 uM compound) and were mixed in a microplate to obtain 12 different compound concentrations ranging from 0 to 40 uM. Then each dilution comprising 90 ul was transferred to a UV-Star 96-well microplate. […] Binding curves were analyzed according to the two-state model describing the formation of a 1:1 complex. Kd values were obtained from curve-fit of binding isotherms.

[5] = target: T5, Genome polyprotein [1424-1463]/[1502-1685] (West Nile virus, UniProt P06935); assay: as above; details: pH 7.5; 37 °C
T5 construct: 1424-1463; 1502-1685
T5 sequence (P06935 whole entry) 1: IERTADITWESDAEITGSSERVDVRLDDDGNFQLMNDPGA
T5 sequence (P06935 whole entry) 2: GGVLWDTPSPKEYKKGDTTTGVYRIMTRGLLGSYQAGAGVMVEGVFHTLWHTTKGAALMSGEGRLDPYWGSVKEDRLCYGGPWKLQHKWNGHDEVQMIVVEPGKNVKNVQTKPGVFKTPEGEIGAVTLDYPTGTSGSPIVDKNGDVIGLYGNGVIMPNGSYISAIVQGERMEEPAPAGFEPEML
Experimental: as §2

[6] = target: T4, Genome polyprotein [1066-1250,R1182K]/[1394-1440,K1405R,D1408E]; assay: Enzyme Inhibition Assay; details: pH 7.5; 37 °C
Experimental: as §1

[7] = target: T5, Genome polyprotein [1424-1463]/[1502-1685]; assay: Enzyme Inhibition Assay; details: pH 7.5; 37 °C
Experimental: as §1

Compound | IC50 [1] [µM] | IC50 [2] [µM] | IC50 [3] [µM] | IC50 [4] [µM] | Kd [4] [µM] | IC50 [5] [µM] | Kd [5] [µM] | IC50 [6] [µM] | IC50 [7] [µM]
c1ccc2c(Nc3ccc4c(c3)CCNC4)nnc(Nc3ccc(C4=NCCN4)cc3)c2c1 [phthalazine-based compound, 6] | 170 | 86 | 43 | 55 | 54 | 6.2 | 7 |  | 
Nc1ccc2c(Nc3ccc(C4=NCCN4)cc3)nnc(Nc3ccc(C4=NCCN4)cc3)c2c1 [phthalazine-based compound, 9] | > 100 | > 100 | > 100 | > 100 | 100 |  |  |  | 
COC(=O)c1ccc(-c2ccc(Nc3nnc(Nc4ccc(C5=NCCN5)cc4)c4ccccc34)cc2)cc1 [phthalazine-based compound, 7] | 2.72 | 1 | 1.3 | 1.6 |  | 2.2 |  |  | 
CCCC[C@H](NC(=O)c1ccccc1)C(=O)N[C@@H](CCCCN)C(=O)N[C@@H](CCCNC(=N)N)C(=O)N[C@H](C=O)CCCNC(=N)N [Bz-Nle-Lys-Arg-Arg-H] (Bz-[Nle]KRR-aldehyde) | 11.8 | 7.9 | 1.4 |  |  |  |  | 8.9 | 
c1ccc(-c2ccc(Nc3nnc(Nc4ccc(C5=NCCN5)cc4)c4ccccc34)cc2)cc1 [phthalazine-based compound, 2] | 2 | 1.6 | 2 | 2.3 |  | 3.6 |  |  | 
CC1CNC(c2ccc(Nc3nnc(Nc4ccc(C5=NC(C)CN5)cc4)c4ccccc34)cc2)=N1 (configuration not stated) [phthalazine-based compound, 1] | 36.4 | 17.5 | 32.8 | 6 | 7.2 |  | 21 |  | 
c1ccc2c(Nc3ccc4c(c3)CNCC4)nnc(Nc3ccc(C4=NCCN4)cc3)c2c1 [phthalazine-based compound, 4] | 233 | 100 | 64.8 | 27.4 | 22.9 |  | 4.6 |  | 
NCc1ccc(Nc2nnc(Nc3ccc(C4=NCCN4)cc3)c3ccccc23)cc1 [phthalazine-based compound, 5] | 12.3 | 8.7 | 8.2 | 5.8 | 18.6 |  | 100 |  | 
c1ccc2c(Nc3ccc(C4=NC5CCCCC5N4)cc3)nnc(Nc3ccc(C4=NC5CCCCC5N4)cc3)c2c1 (configuration not stated) [phthalazine-based compound, 3] | 10.7 | 8.5 | 13.6 | 1.1 | 7.7 | 22 | 90 |  | 
c1ccc2c(Nc3ccc(C4=NCCN4)cc3)nnc(Nc3ccc(C4=NCCN4)cc3)c2c1 [phthalazine-based compound, 8] | 21.4 | 27.9 | 19.8 | 10.2 | 16.3 |  |  |  | 16
